From patent US8183296B2, “Pesticide phenyloxy substituted phenylamidine derivatives” (Bayer Cropscience AG, priority 2005, dated 2012) come the findings set out here.

Each structure is given as a SMILES string.

Data set [1] can be described thus: logP by HPLC on reversed-phase column (C 18), EEC Directive 79/831 Annex V.A8. It is filed as physicochemical.
Assay in data set [2]: as above
It is filed as physicochemical. The note with it: reversed-phase HPLC column (C 18), C 18, 40° C., 0.1% aqueous formic acid and acetonitrile, read-out: logPa. How it is done:
Temperature: 40° C.; Mobile phases: 0.1% aqueous formic acid and acetonitrile; linear gradient from 10% acetonitrile to 90% acetonitrile.
Calibration was carried out using unbranched alkan-2-ones (comprising 3 to 16 carbon atoms) with known logP values (determination of the logP values by the retention times using linear interpolation between two successive alkanones).

Data set [3] deals with Puccinia recondita f. Sp. tritici. In words: In vivo preventive test on Puccinia recondita f. Sp. tritici (wheat brown rust). The settings on record: topical, 240 h, 1000 ppm of active ingredient, evaluated 10 days after inoculation, read-out: efficacy. The protocol: In Vivo Preventive Test on Puccinia recondita f. Sp. tritici (Wheat Brown Rust)
(§1) To produce a suitable preparation of active compound, 1 part by weight of active compound is mixed with the stated amounts of solvent and emulsifier, and the concentrate is diluted with water to the desired concentration.
To test for preventive activity, young plants are […]. After the spray coating has dried on, the plants are sprayed with the preparation of active compound at the stated rate of application. The plants remain for 24 hours in an incubation cabinet at 20° C. and a relative atmospheric humidity of 100%.
The plants are placed in a greenhouse at a temperature of approximately 20° C. and a relative atmospheric humidity of approximately 80% to promote the development of rust pustules.
The test is evaluated 10 days after the inoculation. 0% means an efficacy which corresponds to that of the control, while an efficacy of 100% means that no disease is observed.

The test system of data set [4] is Erysiphe graminis f.sp. hordei. Nature of the data set: In vivo preventive test on Erysiphe graminis (powdery mildew on barley). The settings on record: Blumeria graminis, topical, 168 h, 1000 ppm of active ingredient, evaluated 7 days after inoculation, read-out: efficacy. How it is done:
In Vivo Preventive Test on Erysiphe gramini (Powdery Mildew on Barley)
To produce a suitable preparation of active compound, 1 part by weight of active compound or active compound combination is mixed with the stated amounts of solvent and emulsifier, and the concentrate is diluted with water to the desired concentration.
To test for preventive activity, young plants are sprayed with the preparation of active compound or active compound combination at the stated rate of application.
After the spray coating has dried on, the plants are dusted with spores of Erysiphe graminis f.sp. hordei
The plants are placed in a greenhouse at a temperature of approximately 20° C. and a relative atmospheric humidity of approximately 80% to promote the development of mildew pustules.
(§2) The test is evaluated 7 days after the inoculation. 0% means an efficacy which corresponds to that of the control, while an efficacy of 100% means that no disease is observed.

Data set [5] relates to Alternaria solani. In words: In vivo protective test on Alternaria solani (leaf spot of tomato). The settings on record: topical, 168 h, 500 ppm of active ingredient, evaluated 7 days after inoculation, read-out: efficacy. How it is done: In Vivo Protective Test on Alternaria solani (Leaf Spot of Tomato)
as §1
To test for protective activity, young plants are sprayed with the preparation of active compound at the stated rate of application. After the spray coating has dried on, the plants are inoculated with an aqueous spore suspension of Alternatia solani. The plants remain for one day in an incubation cabinet at approximately 20° C. and a relative atmospheric humidity of 100%. Then the plants are placed in an incubation cabinet at approximately 20° C. and a relative atmospheric humidity of 96%.
The test is evaluated 7 days after the inoculation. 0% means an efficacy which corresponds to that of the control while an efficacy of 100% means that no disease is observed.

Data set [6] has as its system Podosphaera leucotricha. Nature of the data set: In vivo protective test on Podosphaera leucotricha (apples). The settings on record: topical, 240 h, 100 ppm of active ingredient, evaluated 10 days after inoculation, read-out: efficacy. An excerpt: In Vivo Protective Test on Podosphaera leucotricha (Apples) [table] […] To test for protective activity, young plants are sprayed with the preparation of active compound at the stated rate of application. After the spray coating has dried on, the plants are inoculated with an aqueous spore suspension of the causal agent of apple mildew (Podosphaera leucotricha).

Data set [7] concerns Sphaerotheca fuliginea. Nature of the data set: In vivo protective test on Sphaerotheca fuliginea (cucumbers). The settings on record: Podosphaera fuliginea, topical, 168 h, 100 ppm of active ingredient, evaluated 7 days after inoculation, read-out: efficacy. The protocol: In Vivo Protective Test on Sahaerotheca fuliginea (Cucumbers)
as §1
To test for protect activity, young plants are sprayed with the preparation of active compound at the stated rate of application. After the spray coating has dried on, the plants are inoculated with an aqueous spore suspension of Sphaerotheca fuliginea. The plants are then placed in a greenhouse at approximately 23° C. and a relative atmospheric humidity of approximately 70%.
as §2

With `Cc1cc(Oc2ccc(Cl)c(C(C)(C)C)c2)c(Cl)cc1N` [4-(3-t-butyl-4-chlorohenoxy)-5-chloro-2-methylaniline], the “log P (pH 2.3)” value in data set [1] was 5.68.

Turning to `Cc1cc([N+](=O)[O-])c(C)cc1Oc1ccc(Cl)c(C(C)(C)C)c1` [4-(3-t-butyl-4-chlorphenoxy)-2,5-dimethylnitrobenzene], in data set [1], the “log P (pH 2.3)” value is 6.32.

Take `Cc1cc(Oc2ccc(Cl)c(C(C)(C)C)c2)c(C)cc1N` [4-(3-t-butyl-4-chlorphenoxy)-2,5-xylidine]: in data set [1], the “log P (pH 2.3)” value was determined as 4.38.

For the compound `Cc1cc(Oc2ccc(Cl)c(C(C)(C)C)c2)c(Cl)cc1[N+](=O)[O-]` [4-(3-t-butyl-4-chlorphenoxy)-5-chloro-2-methylnitrobenzene], the “log P (pH 2.3)” value in data set [1] amounted to 6.32.

With `CCN(C)C=Nc1cc(Cl)c(Oc2ccc(Cl)c(C(C)(C)C)c2)cc1C` [Example 1, N-Ethyl-N-methyl-N′-[4-(3-t-butyl-4-chlorphenoxy)-5-chloro-2-methylphenyl]formamidine], the “log P (pH 2.3)” value in data set [1] stood at 2.80.

On to `CCN(C)C=Nc1cc(C)c(Oc2ccc(Cl)c(C(C)(C)C)c2)cc1C` [Example 2, N-Ethyl-N-methyl-N′-[4-(3-t-butyl-4-chlorphenoxy)-2,5-xylyl]formamidine], for which, in data set [1], the “log P (pH 2.3)” value was found to be 3.04.

For the compound `CCc1cc(Oc2cc(C)c(/N=C/N(C)CC)cc2C)ccc1Cl` [Example 5], the chromatographic logP in data set [2] was 2.56. Further, the pest or weed control at 1000 ppm in data set [3] and in data set [4] was at least 70% throughout. Moreover, the pest or weed control at 500 ppm in data set [5] is at least 70%. Besides, the pest or weed control at 100 ppm in data set [6] and in data set [7] was at least 70% in each case.

Take `CCCN(C)/C=N/c1cc(C)c(Oc2ccc(Cl)c(C(C)(C)C)c2)cc1C` [Example 8]: in data set [2], the chromatographic logP came to 3.3. Further, the pest or weed control at 1000 ppm in data set [3] and in data set [4] was at least 70% each time. Moreover, in data set [5], the pest or weed control at 500 ppm was at least 70%. Besides, the pest or weed control at 100 ppm in data set [6] and in data set [7] was at least 70% throughout.

Consider `Cc1cc(Oc2ccc(Cl)c(C(C)(C)C)c2)c(C)cc1/N=C/N(C)C(C)C` [Example 9], for which, in data set [2], the chromatographic logP came to 3.42. Moreover, the pest or weed control at 1000 ppm in data set [3] and in data set [4] was at least 70% throughout. In addition, the pest or weed control at 500 ppm in data set [5] was at least 70%. The pest or weed control at 100 ppm in data set [6] and in data set [7] was at least 70% throughout.

In the case of `CCN(C)/C(S)=N/c1cc(C)c(Oc2ccc(Cl)c(C(C)(C)C)c2)cc1C` [Example 10], the chromatographic logP in data set [2] turned out to be 5.12. Besides, the pest or weed control at 1000 ppm in data set [4] was at least 70%. Besides, the pest or weed control at 500 ppm in data set [5] is at least 70%. Also, the pest or weed control at 100 ppm in data set [6] and in data set [7] was at least 70% in each case.

For `CCc1cc(Oc2cc(C)c(/N=C/N(C)CC)cc2Cl)ccc1Cl` [Example 13], the chromatographic logP in data set [2] is 2.78. For the same compound, the pest or weed control at 1000 ppm in data set [3] and in data set [4] was at least 70% throughout. Further, in data set [5], the pest or weed control at 500 ppm was at least 70%. For the same compound, the pest or weed control at 100 ppm in data set [6] and in data set [7] was at least 70% throughout.

With `CCCN(C)/C=N/c1cc(C)c(Oc2ccc(Cl)c(CC)c2)cc1C` [Example 14], the chromatographic logP in data set [2] was 2.76. For the same compound, the pest or weed control at 1000 ppm in data set [3] and in data set [4] was at least 70% throughout. For the same compound, in data set [5], the pest or weed control at 500 ppm is at least 70%. The pest or weed control at 100 ppm in data set [6] and in data set [7] was at least 70% throughout.

Take `CCCN(C)/C=N/c1cc(C)c(Oc2ccc(Br)c(C(C)C)c2)cc1C` [Example 17]: the chromatographic logP in data set [2] is 2.91. In addition, the pest or weed control at 1000 ppm in data set [3] and in data set [4] was at least 70% throughout. Moreover, the pest or weed control at 500 ppm in data set [5] was at least 70%. Further, the pest or weed control at 100 ppm in data set [6] and in data set [7] was at least 70% in each case.

As to `CCN(C)/C=N/c1cc(C)c(Oc2ccc(Br)c(C(C)C)c2)cc1C` [Example 19], in data set [2], the chromatographic logP came out at 3.04. Also, the pest or weed control at 1000 ppm in data set [3] and in data set [4] was at least 70% each time. The pest or weed control at 500 ppm in data set [5] was at least 70%. Also, the pest or weed control at 100 ppm in data set [6] and in data set [7] was at least 70% each time.

Take `CCN(C)/C=N/c1cc(Cl)c(Oc2ccc(Cl)c(C(C)C)c2)cc1C` [Example 20]: the chromatographic logP in data set [2] turned out to be 2.95. Moreover, the pest or weed control at 1000 ppm in data set [3] and in data set [4] was at least 70% in each case. The pest or weed control at 500 ppm in data set [5] is at least 70%. For the same compound, the pest or weed control at 100 ppm in data set [6] and in data set [7] was at least 70% throughout.

Turning to `CCCN(C)/C=N/c1cc(Cl)c(Oc2ccc(Cl)c(C(C)C)c2)cc1C` [Example 21], the chromatographic logP in data set [2] is 3.03. Besides, the pest or weed control at 1000 ppm in data set [3] and in data set [4] was at least 70% in each case. In addition, in data set [5], the pest or weed control at 500 ppm was at least 70%. Further, the pest or weed control at 100 ppm in data set [6] and in data set [7] was at least 70% each time.

For the compound `Cc1cc(Oc2ccc(Cl)c(C(C)C)c2)c(Cl)cc1/N=C/N(C)C(C)C` [Example 22], the chromatographic logP in data set [2] stood at 3.17. Moreover, the pest or weed control at 1000 ppm in data set [3] and in data set [4] was at least 70% each time. In addition, the pest or weed control at 500 ppm in data set [5] was at least 70%. In addition, the pest or weed control at 100 ppm in data set [6] and in data set [7] was at least 70% throughout.

For `CCCN(C)/C=N/c1cc(Cl)c(Oc2ccc(Cl)c(C(C)(C)C)c2)cc1C` [Example 25], the chromatographic logP in data set [2] is 3.27. Moreover, the pest or weed control at 1000 ppm in data set [3] and in data set [4] was at least 70% each time. Further, the pest or weed control at 500 ppm in data set [5] was at least 70%. Also, the pest or weed control at 100 ppm in data set [6] and in data set [7] was at least 70% in each case.

Turning to `CCN(C)/C=N/c1cc(Cl)c(Oc2ccc(Cl)c(C(C)(C)C)c2)cc1C` [Example 26], the chromatographic logP in data set [2] was determined as 3.02. The pest or weed control at 1000 ppm in data set [3] and in data set [4] was at least 70% throughout. For the same compound, the pest or weed control at 500 ppm in data set [5] is at least 70%. Also, the pest or weed control at 100 ppm in data set [6] and in data set [7] was at least 70% throughout.

In the case of `Cc1cc(Oc2ccc(Cl)c(C(C)C)c2)c(C)cc1/N=C/N(C)C(C)C` [Example 28], the chromatographic logP in data set [2] is 2.74. In addition, the pest or weed control at 1000 ppm in data set [3] and in data set [4] was at least 70% each time. Moreover, the pest or weed control at 500 ppm in data set [5] is at least 70%. In addition, the pest or weed control at 100 ppm in data set [6] and in data set [7] was at least 70% in each case.

As for `CCN(C)/C=N/c1cc(Cl)c(Oc2ccc(Br)c(C(C)C)c2)cc1C` [Example 30], the chromatographic logP in data set [2] was determined as 2.84. Further, the pest or weed control at 1000 ppm in data set [3] and in data set [4] was at least 70% throughout. Besides, the pest or weed control at 500 ppm in data set [5] is at least 70%. The pest or weed control at 100 ppm in data set [6] and in data set [7] was at least 70% in each case.

Take `CCc1cc(Oc2cc(C)c(/N=C/N(C)C(C)C)cc2C)ccc1Cl` [Example 32]: in data set [2], the chromatographic logP amounted to 2.75. The pest or weed control at 1000 ppm in data set [3] and in data set [4] was at least 70% in each case. Besides, the pest or weed control at 500 ppm in data set [5] is at least 70%. Also, the pest or weed control at 100 ppm in data set [6] and in data set [7] was at least 70% in each case.
